Test [1] addresses T1, Human OX1 receptor (Homo sapiens, UniProt O43613).
T1 sequence (O43613 1-425): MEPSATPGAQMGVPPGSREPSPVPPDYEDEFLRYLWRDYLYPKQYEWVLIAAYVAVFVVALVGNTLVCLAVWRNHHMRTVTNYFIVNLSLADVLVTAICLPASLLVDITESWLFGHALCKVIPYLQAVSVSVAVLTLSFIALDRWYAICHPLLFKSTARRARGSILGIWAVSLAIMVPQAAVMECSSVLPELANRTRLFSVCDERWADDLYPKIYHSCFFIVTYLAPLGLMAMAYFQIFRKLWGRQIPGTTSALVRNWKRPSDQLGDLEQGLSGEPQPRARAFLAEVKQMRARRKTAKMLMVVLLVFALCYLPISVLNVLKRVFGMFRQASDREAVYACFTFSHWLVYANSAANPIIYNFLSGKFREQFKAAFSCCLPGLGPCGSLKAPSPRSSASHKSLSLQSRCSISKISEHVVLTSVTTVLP
The test is described as follows: [3H]-radioligand binding assay, human OX1 receptor membranes.
Protocol: (§3) Human OX1 or OX2 receptor were cloned into Invitrogen's (ThermoFisher Scientific, UK) Bac-to-Bac Baculovirus Expression System. P0 baculovirus was generated by transfecting SF9 cells with bacmid DNA using Cellfectin® II transfection reagent (ThermoFisher Scientific, UK, Catalog number 10362-100). Following P0 generation P1 virus was then generated ready for large scale infection and membrane preparation. SF21 cells were grown in expression medium ESF921 (Expression Systems, USA, catalog number 96-001-01) supplemented with 10% heat-inactivated FBS and 1% Pen/Strep and were infected at a cell density of 2.5×10^6 cells/mL and a multiplicity of infection of 1.0 for both human OX1R and OX2R. Incubation was carried out at over 48 h in a shaking incubator set at 27° C. The cell culture was then centrifuged at 2,500 rcf for 10 min at 4° C. The pellets were resuspended in cold PBS supplemented with Roche's Complete EDTA-free protease inhibitor cocktail tablets (Roche Applied Sciences, catalog number 05056489001), 1 mM PMSF and 1 mM EDTA. The resuspended cell paste was then centrifuged at 3,273 rcf for 12 min at 4° C. The supernatant was discarded and the pellet frozen at −80° C. The cell pellet from a 4 L culture was resuspended in buffer containing 50 mM HEPES pH 7.5, 150 mM NaCl, 8 Roche EDTA-Free protease inhibitor cocktail tablets and 1 mM PMSF. The suspension was left stirring at rt for 1 h and then homogenised for 90 s at 9,500 rpm using a VDI 25 (VWR, USA) homogeniser. The cells were then lysed using a Microfluidiser processor M-110L Pneumatic (Microfluidics, USA) at 60 PSI and membranes collected by ultracentrifugation at 204.7 k×g for 1 h. The supernatant was discarded and the pellet was resuspended and homogenised in 90 s at 9,500 rpm in 50 mL (25 mL for each 2 L culture) of buffer containing 50 mM Hepes pH 7.5, 150 mM NaCl, 3 Roche EDTA-free protease inhibitor cocktail tablets and 1 mM PMSF. The resulting membranes were then stored at −80° C.
(§4) [^3H]-radioligand binding assay. After thawing, membrane homogenates were re-suspended in the binding buffer (8.5 mM HEPES, pH 7.4, 1.3 mM CaCl2, 1.2 mM MgSO4, 118 mM NaCl, 4.7 mM KCl, 4 mM NaHCO3, 1.2 mM KH2PO4, 11 mM glucose) to a final assay concentration of 6.4 μg (OX1) or 1.4 μg (OX2) protein per well. Saturation isotherms were determined by the addition of various concentrations (0-30 nM) of [^3H]-4-(2,6-difluoro-4-methoxybenzyl)-2-(5,6-dimethoxypyridin-3-yl)-2H-1,2,4-benzothiadiazin-3(4H)-one 1,1-dioxide (Christopher et al, MedChemComm., 2015, 6, 947-955) in a total reaction volume of 250 μL for 90 min at rt. At the end of the incubation, membranes were filtered onto a 96-well GF/B filter pre-incubated with 0.5% polyethylenimine, with a Tomtec cell harvester and washed 5 times with 0.5 mL distilled water. Non-specific binding (NSB) was measured in the presence of 3.33 μM [4-(5-chloro-1,3-benzoxazol-2-yl)-7-methyl-1,4-diazepan-1-yl][5-methyl-2-(2H-1,2,3-triazol-2-yl)phenyl]methanone (Wertz et al, Angew. Chem. Int. Ed., 2011, 50, 11511-11515). Radioactivity on the filter was counted (1 min) on a Microbeta radiometric plate counter (Perkin Elmer) after addition of 50 μL of scintillation fluid (LabLogic: Part #SG-BXX-14). […] IC50 values were derived from the inhibition curve and the equilibrium dissociation constant (Ki) values were calculated using the Cheng-Prusoff equation.

For test [2], the target named is T1, Human OX1 receptor. Put plainly: IPone accumulation assay, CHO cells expressing human OX1 receptor. The class given is cell-based. To be noted: antagonism of orexin A (EC80) induced inositol phosphate turnover, read-out: fpKb average OX1 (converted). The protocol: (§1) Stable cell lines for the human OX1R and OX2R receptors were generated through the transfection of CHO cells using the transfection reagent Genejuice (Novagen number 70967) and cDNA coding for either the human OX1R or OX2R. Cells were cultured in Sigma Nutrient Mixture F-12 Ham media (catalog number N6658) supplemented with 10% heat-inactivated FBS. Forty-eight hours after transfection, cells were harvested and placed under geneticin selection by culturing in Sigma Nutrient Mixture F-12 Ham media supplemented with 10% heat-inactivated FBS and geneticin (ThermoFisher Catalog number: 10131035). Selection of the final stable clone for each receptor was made on the basis of receptor expression, assay signal to noise and robustness though increasing passage. Selected clones for the human OX1R and OX2R were then frozen down into liquid nitrogen using Cell Freezing Medium-DMSO (Sigma-Aldrich catalog number: C6164).
(§2) IPone accumulation assay. A CHO cell line stably expressing either human OX1 or OX2 receptor was used with the IPone HTRF assay kit (CisBio: Part #62IPAPEJ) to measure receptor activation. The assay was optimised to measure the ability (potency; fpKb) of antagonists to reduce agonist (orexin A)-induced inositol phosphate turnover. Briefly, cells were plated onto half area 96-well white walled plates at a density of 12,500 cells/well. Sixteen hours post-plating cell growth media was replaced with antagonist concentration-response curve diluted in stimulation buffer (supplied with the kit). Cells were incubated in a humidified incubator (37° C.) for 30 min before an EC80 challenge concentration (˜20 nM (OX1) and 40 nM (OX2)) of orexin A (Tocris catalogue number 1455). After 30 min stimulation in a humidified incubator (37° C.) the assay was terminated by the addition of detection mixture as per manufacturer's instructions. The concentration of compound which reduced orexin-A stimulated turnover of inositol phosphates by 50% (IC50) was calculated by fitting to a four parameter sigmoidal dose response curve. The IC50 values were converted to fpKB values using the orexin A pEC50 value estimated on each plate as well as the challenge concentration interpolated from the orexin A control curve.

Test [3] has as its target T2, Human OX2 receptor (Homo sapiens, UniProt O43614).
T2 sequence (O43614 1-444): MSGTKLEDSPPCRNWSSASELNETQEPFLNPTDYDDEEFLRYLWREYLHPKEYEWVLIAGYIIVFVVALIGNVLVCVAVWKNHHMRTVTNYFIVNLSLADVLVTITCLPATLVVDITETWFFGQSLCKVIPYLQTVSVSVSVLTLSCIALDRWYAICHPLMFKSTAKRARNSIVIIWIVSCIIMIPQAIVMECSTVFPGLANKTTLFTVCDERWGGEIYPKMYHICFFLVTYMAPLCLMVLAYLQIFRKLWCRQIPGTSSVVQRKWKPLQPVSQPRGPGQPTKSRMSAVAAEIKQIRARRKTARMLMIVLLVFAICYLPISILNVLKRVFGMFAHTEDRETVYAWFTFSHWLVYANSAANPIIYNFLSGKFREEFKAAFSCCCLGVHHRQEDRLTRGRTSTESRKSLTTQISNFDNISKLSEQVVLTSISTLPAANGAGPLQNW
The test is described as follows: IPone accumulation assay, CHO cells expressing human OX2 receptor. In kind it is cell-based. Particulars: antagonism of orexin A (EC80) induced inositol phosphate turnover, read-out: fpKb average OX2. The protocol:
as §1
as §2, with “Cells were incubated in a humidified incubator (37° C.) for 30 min before an EC80 challenge concentration (˜20 nM (OX1) and 40 nM (OX2)) of orexin A (Tocris catalogue number 1455).” left out

The target of test [4] is T2, Human OX2 receptor. The test is described as follows: [3H]-radioligand binding assay, human OX2 receptor membranes.
Protocol: as §3, §4

By Ki is commonly meant the dissociation constant of the complex between target and ligand, obtained from inhibition or displacement. Read a low Ki as higher affinity. On to `COc1nccc(-n2nccn2)c1C(=O)N[C@H]1CCC[C@@H]1COc1ccc(F)cc1` [Example 29, N-[(1S,2S)-2-[(4-fluorophenoxy)methyl]cyclopentyl]-2-methoxy-4-(triazol-2-yl)pyridine-3-carboxamide], for which the Ki in test [1] is 0.00631 µM; in test [4], 0.794 µM. In addition, the Kb is 0.0398 µM in test [2] and over 0.631 µM in test [3].

For `Cc1ccc(-n2nccn2)c(C(=O)N[C@H]2CCC[C@@H]2COc2ccc(F)cc2)n1` [Example 22, N-[(1S,2S)-2-[(4-fluorophenoxy)methyl]cyclopentyl]-6-methyl-3-(triazol-2-yl)pyridine-2-carboxamide], the figures for the Ki in test [1] and in test [4] were 0.00398 µM and over 3.16 µM, respectively. In addition, the Kb in test [2] was 0.0251 µM; in test [3], over 1.26 µM.

For the molecule `O=C(N[C@H]1CCC[C@@H]1COc1ccc(F)cc1)c1ncccc1-c1ncccn1` [Example 25, N-[(1S,2S)-2-[(4-fluorophenoxy)methyl]cyclopentyl]-3-pyrimidin-2-yl-pyridine-2-carboxamide], the inhibition constant (Ki) in test [1] was 0.00794 µM; in test [4] it was over 3.16 µM. In addition, the results for the Kb in test [2] and in test [3] were 0.0794 µM and over 0.631 µM, respectively.

Regarding `COCc1ccc(-n2nccn2)c(C(=O)N[C@H]2CCC[C@@H]2COc2ccc(Cl)cc2)n1` [Example 19, N-[(1S,2S)-2-[(4-chlorophenoxy)methyl]cyclopentyl]-6-(methoxymethyl)-3-(triazol-2-yl)pyridine-2-carboxamide], the Ki was 0.00794 µM in test [1] and over 5.01 µM in test [4]. The Kb was 0.0794 µM in test [2] and over 1.26 µM in test [3].

Consider `COc1cccc(-c2ccncn2)c1C(=O)N[C@H]1CCC[C@@H]1COc1ccc(F)cc1` [Example 12, N-[(1S,2S)-2-[(4-fluorophenoxy)methyl]cyclopentyl]-2-methoxy-6-pyrimidin-4-yl-benzamide], for which the Ki is 0.00316 µM in test [1] and 1 µM in test [4]. Also, the Kb in test [2] was 0.0126 µM; in test [3], over 0.631 µM.

As to `O=C(N[C@H]1CCC[C@@H]1COc1ccc(Cl)cc1)c1ncccc1-c1ncccn1` [Example 27, N-[(1S,2S)-2-[(4-chlorophenoxy)methyl]cyclopentyl]-3-pyrimidin-2-yl-pyridine-2-carboxamide], the values for the Ki in test [1] and in test [4] were 0.02 µM and over 5.01 µM, respectively. Moreover, the Kb in test [2] is 0.316 µM; in test [3] it was over 2.51 µM.

Regarding `COCc1cccc(-n2nccn2)c1C(=O)N[C@H]1CCC[C@@H]1COc1ccc(F)cc1` [Example 17, N-[(1S,2S)-2-[(4-fluorophenoxy)methyl]cyclopentyl]-2-(methoxymethyl)-6-(triazol-2-yl)benzamide], the Ki in test [1] is 0.0316 µM; in test [4], over 1.26 µM. Also, the Kb is 0.251 µM in test [2] and over 0.631 µM in test [3].

In the case of `Cc1ccc(-n2nccn2)c(C(=O)N[C@H]2CCC[C@@H]2COc2ccc(Cl)cc2)n1` [Example 23, N-[(1S,2S)-2-[(4-chlorophenoxy)methyl]cyclopentyl]-6-methyl-3-(triazol-2-yl)pyridine-2-carboxamide], the Ki in test [1] is 0.00126 µM; in test [4], over 3.98 µM. The Kb was 0.0398 µM in test [2] and over 1.26 µM in test [3].

Consider `COCc1ccc(-n2nccn2)c(C(=O)N[C@H]2CCC[C@@H]2COc2ccc(F)cc2)n1` [Example 18, N-[(1S,2S)-2-[(4-fluorophenoxy)methyl]cyclopentyl]-6-(methoxymethyl)-3-(triazol-2-yl)pyridine-2-carboxamide], for which the inhibition constant Ki in test [1] is 0.00794 µM; in test [4], over 5.01 µM. Moreover, the Kb was 0.0631 µM in test [2] and over 1.26 µM in test [3].

In the case of `COc1cccc(-c2ncccn2)c1C(=O)N[C@H]1CCC[C@@H]1COc1ccc(F)cn1` [Example 32, N-[(1S,2S)-2-[(5-fluoro-2-pyridyl)oxymethyl]cyclopentyl]-2-methoxy-6-pyrimidin-2-yl-benzamide], the Ki in test [1] was 0.02 µM; in test [4] it was 2 µM. Further, the figures for the Kb in test [2] and in test [3] were 0.0501 µM and over 2.51 µM, respectively.

For `COc1ccc(-n2nccn2)c(C(=O)N[C@H]2CCC[C@@H]2COc2ccc(Cl)cc2)n1` [Example 21, N-[(1S,2S)-2-[(4-chlorophenoxy)methyl]cyclopentyl]-6-methoxy-3-(triazol-2-yl)pyridine-2-carboxamide], the figures for the Ki in test [1] and in test [4] were 0.0126 µM and over 5.01 µM, respectively. The Kb is 0.794 µM in test [2] and over 0.631 µM in test [3].

In the case of `O=C(N[C@H]1CCC[C@@H]1COc1ccc(F)cc1)c1c(F)cccc1-n1nccn1` [Example 4, 2-fluoro-N-[(1S,2S)-2-[(4-fluorophenoxy)methyl]cyclopentyl]-6-(triazol-2-yl)benzamide], the Ki in test [1] was 0.00398 µM; in test [4], over 3.16 µM. Also, the Kb was 0.0631 µM in test [2] and over 2 µM in test [3].

For `COc1cccc(-n2nccn2)c1C(=O)N[C@H]1CCC[C@@H]1COc1ccc(Cl)cc1` [Example 6, N-[(1S,2S)-2-[(4-chlorophenoxy)methyl]cyclopentyl]-2-methoxy-6-(triazol-2-yl)benzamide], the Ki was 0.00251 µM in test [1] and 0.2 µM in test [4]. The Kb in test [2] is 0.00631 µM; in test [3], over 0.794 µM.

Consider `Cc1ccc(-c2ncccn2)c(C(=O)N[C@H]2CCC[C@@H]2COc2ccc(F)cc2)c1` [Example 2, N-[(1S,2S)-2-[(4-fluorophenoxy)methyl]cyclopentyl]-5-methyl-2-pyrimidin-2-yl-benzamide], for which the figures for the Ki in test [1] and in test [4] were 0.00501 µM and over 5.01 µM, respectively. The Kb in test [2] is 0.0631 µM; in test [3], over 1.26 µM.

Turning to `O=C(N[C@H]1CCC[C@@H]1COc1ccc(F)cc1)c1c(OC(F)F)cccc1-c1ncccn1` [Example 15, 2-(difluoromethoxy)-N-[(1S,2S)-2-[(4-fluorophenoxy)methyl]cyclopentyl]-6-pyrimidin-2-yl-benzamide], the Ki in test [1] is 0.0126 µM; in test [4], over 1.26 µM. The values for the Kb in test [2] and in test [3] were 0.158 µM and over 2.51 µM, respectively.

On to `O=C(N[C@H]1CCC[C@@H]1COc1ccc(F)cc1F)c1ncccc1-c1ncccn1` [Example 26, N-[(1S,2S)-2-[(2,4-difluorophenoxy)methyl]cyclopentyl]-3-pyrimidin-2-yl-pyridine-2-carboxamide], for which the results for the Ki in test [1] and in test [4] were 0.0126 µM and over 3.16 µM, respectively. Moreover, the Kb was 0.251 µM in test [2] and over 0.794 µM in test [3].

The values are drawn from patent US12331029B2, “Orexin 1 receptor antagonists” (NXERA PHARMA UK LIMITED, priority 2018, dated 2025).
